Literature values as cited in US11938119B2, “Cannabis production systems and methods” ([…], LLC, priority 2017, dated 2024).

Conditions: stated "in embodiments"; no solvent system or method printed

Row | Structure (SMILES) | partition coefficient
1 | C=C(C)[C@@H]1CCC(C)=C[C@H]1c1c(O)cc(CCCCC)cc1O [cannabidiol] | 5.79
2 | CCCCCc1cc(O)c2c(c1)OC(C)(C)[C@@H]1CCC(C)=C[C@@H]21 [tetrahydrocannabinol] | 6.99
